We go through 1 compound from publication PMC9445017, “Molecular basis for polysaccharide recognition and modulated ATP hydrolysis by the O antigen ABC transporter” (Nature Communications, 2022).

Experiment [1] concerns the target T1, Wzt-CBD (also Wzt-CBM, WztC) (Aquifex aeolicus, UniProt O67181).
T1 construct: gene abcT4; N-terminal His6-TEV tag removed; E. coli C43(DE3); domain-swapped dimer
In words: isothermal titration calorimetry. The format is binding. The conditions noted are these: 50 mM HEPES pH 8.0, 25 °C; 1:1 per CBD monomer; read-out: affinity.

The target in another experiment is T2, WzmWzt (full-length) (Aquifex aeolicus, UniProt O67181).
T2 construct: gene abcT4; full-length wild-type transporter, Wzm2Wzt2; His-tagged (WzmWzt-His), purified as previously described; in lipid nanodiscs or DDM micelles; with O antigen ABC transporter permease Wzm (Transport permease protein)
In words: NADH-coupled ATPase assay. The format is biochemical. The conditions noted are these: 1 mM ATP, 27 °C; CBD ligand, non-physiologically high concentration.

T1 sequence (O67181 entry or part of it): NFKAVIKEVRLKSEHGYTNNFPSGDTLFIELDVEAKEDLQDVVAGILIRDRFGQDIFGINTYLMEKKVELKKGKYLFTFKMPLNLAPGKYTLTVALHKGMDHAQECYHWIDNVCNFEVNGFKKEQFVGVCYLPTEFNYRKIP
T2 sequence (O67181 entry or part of it): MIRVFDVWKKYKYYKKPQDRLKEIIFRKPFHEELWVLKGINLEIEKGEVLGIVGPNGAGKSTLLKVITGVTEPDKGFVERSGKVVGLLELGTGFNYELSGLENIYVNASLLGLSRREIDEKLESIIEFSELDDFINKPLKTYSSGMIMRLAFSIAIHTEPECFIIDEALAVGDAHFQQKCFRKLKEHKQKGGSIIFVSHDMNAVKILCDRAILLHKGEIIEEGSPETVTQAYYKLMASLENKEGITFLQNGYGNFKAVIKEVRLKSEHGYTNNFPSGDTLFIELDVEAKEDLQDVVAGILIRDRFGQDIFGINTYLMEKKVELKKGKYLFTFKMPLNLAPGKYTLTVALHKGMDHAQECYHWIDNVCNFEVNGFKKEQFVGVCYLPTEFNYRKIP
T2 sequence (O67182 entry or part of it, further chain): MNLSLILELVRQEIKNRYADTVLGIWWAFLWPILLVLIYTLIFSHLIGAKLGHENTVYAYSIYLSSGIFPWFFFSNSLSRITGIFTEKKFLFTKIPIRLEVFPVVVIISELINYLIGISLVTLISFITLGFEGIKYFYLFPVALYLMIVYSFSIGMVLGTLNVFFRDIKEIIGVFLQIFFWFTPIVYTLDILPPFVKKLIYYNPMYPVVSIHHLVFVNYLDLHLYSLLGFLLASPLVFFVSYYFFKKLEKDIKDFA

For `CO[C@H]1[C@H](O)[C@@H](CO)OC(O)[C@H]1O` (stereo partly drawn) [3-O-methyl-D-mannose], the Kd in experiment [1] is roughly 234 µM. For the same compound, the “% increase in ATPase activity at high concentration” value on WzmWzt (full-length) is on record as ~ 50%.
